{"source": "patent US9359378B2", "about": "“Substituted oxazolo[3,4-a]pyrazines as pharmaceutcals” (BIOLAB SANUS FARMACÊUTICA LTDA., priority 2014, dated 2016)", "system": "rabbit's corpus cavernosum", "assay": "Relaxing effect in isolated rabbit's corpus cavernosum strips pre-contracted with phenylephrine (isometric tension)", "set-up": "species or system New Zealand White rabbits", "conditions": "strips pre-contracted with 1 μM PE; FIGS. 12 and 13", "experimental": "For this study, New Zealand White rabbits (2 to 3.5 kg) were used to obtain penile tissue which was excised and transferred to a chilled Krebs solution. For this study, we used cavernosum strips (CC) of the penile tissue of New Zealand White rabbits. The strips were mounted in 10 ml tissue incubation chambers containing Krebs solution at 37° C., pH occurring between 7.3 and 7.5; continuously bubbled with a mixture of 95% oxygen (O2) and 5% carbon dioxide (CO2). An initial tension of 10 mN were applied on the tissues, followed by a 60 minute stabilization period. Changes in tension (isometric force) were obtained using isometric transducers (ADInstruments, Australia) and recorded in a data acquisition system PowerLab 4/30 (Chart Software, version 7.3.7, ADInstruments, MA, USA for BL-230 and version 7.0 ADInstruments, MA for the BL-236). […] Cumulative curve responses to the concentration of BL-230 compounds and tadalafil (0.001 to 10 μM) were obtained in the pre-contracted rabbit corpus cavernosum strips with 1 μM PE."}
{"smiles": "CN1CC(=O)N2[C@H](c3ccc4c(c3)OCO4)c3[nH]c4ccccc4c3C[C@@H]2C1=O", "note": "[tadalafil, reference compound]", "values": [{"measurement": "percentage of relaxation in rabbit's corpus cavernosum", "value": "around 100%"}]}
